Results as given in patent publication US6251899A, “Methoximinomethyloxadiazines” (Bayer Aktiengesellschaft, priority 1997, dated 2001).
Where two headings read alike, the source gives them in different places.

Legend:
[1] = logP by HPLC (EEC Directive 79/831 Annex V. A8, gradient method, acetonitrile/0.1% aqueous phosphoric acid); assay type: physicochemical
Experimental: *The logP values were determined in accordance with EEC Directive 79/831
Annex V. A8 by HPLC (gradient method, acetonitrile/0.1% aqueous phosphoric

Plasmopara viticola = assay: Plasmopara test (grapevine)/protective; conditions: 144 h
Experimental: Solvent: 47 parts by weight of acetone
(§1) Emulsifier: 3 parts by weight of alkylaryl polyglycol ether
After the spray coating has dried on, the plants are inoculated with an aqueous spore suspension of Plasmopara viticola and then remain in an incubation cabin at approximately 20° C. and 100% relative atmospheric humidity for 1 day. The plants are subsequently placed in a greenhouse at approximately 21° C. and approximately 90% relative atmospheric humidity for 5 days. The plants are then moistened and placed in an incubation cabin for 1 day.
Evaluation is carried out 6 days after the inoculation.

Venturia inaequalis = assay: Venturia test (apple)/protective; conditions: 288 h
Experimental: Solvent: 47 parts by weight of acetone
as §1
After the spray coating has dried on, the plants are inoculated with aqueous conidia suspension of the causative organism of apple scab Venturia inaequalis and then remain in an incubation cabin at approximately 20° C. and 100% relative atmospheric humidity for 1 day.
The plants are then placed in a greenhouse at approximately 21° C. and a relative atmospheric humidity of approximately 90%.
Evaluation is carried out 12 days after the inoculation.

[2] = read-out: Efficacy, grapevine, protective, 100 g/ha, 6 days after inoculation
[3] = read-out: Efficacy, apple, protective, 10 g/ha, 12 days after inoculation

Compound | chromatographic logP [1] | pest or weed control at 100 g/ha (Plasmopara viticola; [2]) [%] | pest or weed control at 10 g/ha (Venturia inaequalis; [3]) [%] | further results
CON=C(C1=NOCCN1)c1ccccc1Oc1ncnc(Oc2cccc(Cl)c2Cl)c1F [Example 1, 3-{1-[2-(4-<2,3-dichlorophenoxy>-5-fluoropyrimid-6-yloxy)-phenyl]-1-(methoximino)-methyl}-5,6-dihydro-4H-1,2,4-oxadiazine] | 3.45 | ≥ 90 | – | –
CON=C(C1=NOCCN1)c1ccccc1Oc1ncnc(Oc2cccc(Cl)c2C)c1F [Example 2] | 3.52 | ≥ 90 | ≥ 90 | –
CON=C(C1=NOCCN1)c1ccccc1Oc1ncnc(Oc2ccccc2Cl)c1F [Example 3] | 3.02 | ≥ 90 | ≥ 90 | pest or weed control at 10 g/ha (Venturia inaequalis; read-out: Efficacy): 92%
CON=C(C1=NOCCN1)c1ccccc1Oc1ncnc(Oc2cccc(C)c2C)c1F [Example 4] | 3.29 | ≥ 90 | ≥ 90 | pest or weed control at 10 g/ha (Venturia inaequalis; read-out: Efficacy): 95%
CON=C(C1=NOCCN1)c1ccccc1Oc1ncnc(Oc2cccc(Cl)c2)c1F [Example 5] | 3.23 | ≥ 90 | ≥ 90 | pest or weed control at 10 g/ha (Venturia inaequalis; read-out: Efficacy): 99%; pest or weed control at 100 g/ha (Plasmopara viticola; read-out: Efficacy): 97%
CON=C(C1=NOCCN1)c1ccccc1Oc1ncnc(Oc2ccc(Cl)cc2)c1F [Example 6] | 3.23 | ≥ 90 | – | pest or weed control at 100 g/ha (Plasmopara viticola; read-out: Efficacy): 97%
C=Cc1ccccc1Oc1ncnc(Oc2ccccc2C(=NOC)C2=NOCCN2)c1F [Example 7] | 3.38 | ≥ 90 | ≥ 90 | –
CON=C(C1=NOCCN1)c1ccccc1Oc1ncnc(Oc2ccccc2C)c1F [Example 8] | 3.01 | – | – | –
CON=C(C1=NOCCN1)c1ccccc1Oc1ncnc(Oc2ccccc2Br)c1F [Example 9] | 3.08 | ≥ 90 | – | –
CON=C(C1=NOCCN1)c1ccccc1Oc1ncnc(Oc2ccccc2F)c1F [Example 10] | 2.85 | ≥ 90 | ≥ 90 | –
CCc1ccccc1Oc1ncnc(Oc2ccccc2C(=NOC)C2=NOCCN2)c1F [Example 11] | 3.32 | ≥ 90 | ≥ 90 | –
CON=C(C1=NOCCN1)c1ccccc1Oc1ncnc(Oc2cccc(C(C)(C)C)c2)c1F [Example 12] | 3.96 | – | ≥ 90 | –
CON=C(C1=NOCCN1)c1ccccc1Oc1ncnc(Oc2ccccc2C(C)C)c1F [Example 13] | 3.59 | ≥ 90 | ≥ 90 | –
CON=C(C1=NOCCN1)c1ccccc1Oc1ncnc(Oc2ccccc2OC)c1F [Example 14] | 2.7 | ≥ 90 | – | –
CON=C(C1=NOCCN1)c1ccccc1Oc1ncnc(Oc2ccc(C)cc2C)c1F [Example 15] | 3.38 | ≥ 90 | – | –
CON=C(C1=NOCCN1)c1ccccc1Oc1ncnc(Oc2cc(C)ccc2C)c1F [Example 16] | 3.35 | – | – | –
CON=C(C1=NOCCN1)c1ccccc1Oc1ncnc(Oc2ccccc2C2CCCC2)c1F [Example 17] | 4.01 | ≥ 90 | ≥ 90 | –
CON=C(C1=NOCCN1)c1ccccc1Oc1ncnc(Oc2cc(C)ccc2Cl)c1F [Example 18] | 3.35 | – | – | –
CON=C(C1=NOCCN1)c1ccccc1Oc1ncnc(Oc2c(C)cccc2C)c1F [Example 19] | 3.29 | ≥ 90 | – | –
CON=C(C1=NOCCN1)c1ccccc1Oc1ncnc(Oc2cccc(C)c2)c1F [Example 20] | 3.1 | ≥ 90 | ≥ 90 | –

Compound | chromatographic logP [1] | pest or weed control at 100 g/ha (Plasmopara viticola; [2]) [%] | pest or weed control at 10 g/ha (Venturia inaequalis; [3]) [%] | further results
CON=C(C1=NOCCN1)c1ccccc1Oc1ncnc(Oc2ccc(C)cc2)c1F [Example 21] | 3.08 | – | ≥ 90 | –
CON=C(C1=NOCCN1)c1ccccc1Oc1ncnc(Oc2ccccc2C(C)(C)C)c1F [Example 22] | 3.84 | – | ≥ 90 | –
CON=C(C1=NOCCN1)c1ccccc1Oc1ncnc(Oc2cccc(OC)c2)c1F [Example 23] | 2.8 | – | ≥ 90 | –
CON=C(C1=NOCCN1)c1ccccc1Oc1ncnc(Oc2cccc(C(F)(F)F)c2)c1F [Example 24] | 3.39 | – | ≥ 90 | –
CON=C(C1=NOCCN1)c1ccccc1Oc1ncnc(Oc2ccc(OC(F)(F)F)cc2)c1F [Example 25] | 3.54 | – | – | –
CON=C(C1=NOCCN1)c1ccccc1Oc1ncnc(Oc2ccc(C(F)(F)F)cc2Cl)c1F [Example 26] | 3.76 | – | – | –
CON=C(C1=NOCCN1)c1ccccc1Oc1ncnc(Oc2ccc(OC(F)(F)F)cc2Cl)c1F [Example 27] | 3.86 | – | – | –
CON=C(C1=NOCCN1)c1ccccc1Oc1ncnc(Oc2ccccc2C#N)c1F [Example 29] | 2.56 | – | – | –
CON=C(C1=NOCCN1)c1ccccc1Oc1ncnc(Oc2ccc(OC(F)(F)F)cc2C)c1F [Example 30] | 3.8 | – | – | –
CON=C(C1=NOCCN1)c1ccccc1Oc1ncnc(Oc2cccc3c2OC(C)(C)C3)c1F [Example 31] | 3.3 | – | ≥ 90 | –
CON=C(C1=NOCCN1)c1ccccc1Oc1ncnc(Oc2ccc(SC(F)(F)F)cc2)c1F [Example 32] | 3.84 | – | – | –
CON=C(C1=NOCCN1)c1ccccc1Oc1ncnc(Oc2ccc(OC(F)(F)C(F)Cl)cc2)c1F (stereo not shown) [Example 33] | 3.56 | – | – | –
CON=C(C1=NOCCN1)c1ccccc1Oc1ncnc(Oc2ccccc2)c1F [Example 34] | 2.76 | ≥ 90 | – | –
CON=C(C1=NOCCN1)c1ccccc1Oc1ncnc(Oc2ccc(C)nc2)c1F [Example 35] | 1.58 | – | – | –
CON=C(C1=NOCCN1)c1ccccc1Oc1ncnc(Oc2cccnc2Br)c1F [Example 36] | 2.43 | – | ≥ 90 | –
CON=C(C1=NOCCN1)c1ccccc1Oc1ncnc(Oc2cccnc2)c1F [Example 37] | 1.73 | – | – | –
CON=C(C1=NOCCN1)c1ccccc1Oc1ncnc(Oc2cccc(Cl)n2)c1F [Example 40] | 2.62 | – | ≥ 90 | –
CON=C(C1=NOCCN1)c1ccccc1Oc1ncnc(Oc2ccc(Cl)cn2)c1F [Example 41] | 2.65 | – | – | –
CON=C(C)c1ccc(Oc2ncnc(Oc3ccccc3C(=NOC)C3=NOCCN3)c2F)c(C)c1 [Example 42] | 3.56 | – | – | –
CON=C(C1=NOCCN1)c1ccccc1Oc1ncnc(OCc2ccccc2Cl)c1F [Example 45] | 2.8 | – | – | –

Compound | chromatographic logP [1] | pest or weed control at 100 g/ha (Plasmopara viticola; [2]) [%] | pest or weed control at 10 g/ha (Venturia inaequalis; [3]) [%] | further results
CON=C(C1=NOCCN1)c1ccccc1Oc1ncnc(OCc2cccc(Cl)c2)c1F [Example 46] | 3.44 | – | – | –
CON=C(C1=NOCCN1)c1ccccc1Oc1ncnc(Sc2ccccc2)c1F [Example 48] | – | ≥ 90 | ≥ 90 | –
CON=C(C1=NOCCN1)c1ccccc1Oc1ncnc(Sc2ccc(Br)cc2)c1F [Example 49] | 3.69 | – | – | –
CON=C(C1=NOCCN1)c1ccccc1Oc1ncnc(Sc2ccc(Cl)cc2)c1F [Example 50] | 3.57 | ≥ 90 | – | –
CON=C(C1=NOCCN1)c1ccccc1Oc1ncnc(Sc2ccc(C)cc2)c1F [Example 51] | 3.45 | ≥ 90 | – | –
CON=C(C1=NOCCN1)c1ccccc1Oc1ncnc(Sc2cccc(Br)c2)c1F [Example 52] | 3.66 | – | – | –
CON=C(C1=NOCCN1)c1ccccc1Oc1ncnc(Sc2cccc(Cl)c2)c1F [Example 53] | 3.56 | ≥ 90 | – | –
CON=C(C1=NOCCN1)c1ccccc1Oc1ncnc(Sc2ccc(Cl)c(C(F)(F)F)c2Cl)c1F [Example 55] | 4.3 | – | – | –
CON=C(C1=NOCCN1)c1ccccc1Oc1ncnc(SC2CCCCC2)c1F [Example 57] | 4.01 | – | – | –
CON=C(C1=NOCCN1)c1ccccc1Oc1ncnc(SCc2ccccc2)c1F [Example 58] | 3.42 | – | – | –
CON=C(C1=NOCCN1)c1ccccc1Oc1ncnc(Oc2cccc(C)c2Cl)c1F [Example 59] | 3.34 | ≥ 90 | ≥ 90 | –
CCSCc1ccccc1Oc1ncnc(Oc2ccccc2C(=NOC)C2=NOCCN2)c1F [Example 60] | 3.4 | – | – | –
COCc1ccccc1Oc1ncnc(Oc2ccccc2C(=NOC)C2=NOCCN2)c1F [Example 61] | 2.74 | – | – | –
CCOCc1ccccc1Oc1ncnc(Oc2ccccc2C(=NOC)C2=NOCCN2)c1F [Example 62] | 3.04 | – | – | –
CON=C(C1=NOCCN1)c1ccccc1Oc1ncnc(Oc2ccccc2SC)c1F [Example 63] | 2.95 | – | – | –
CCSc1ccccc1Oc1ncnc(Oc2ccccc2C(=NOC)C2=NOCCN2)c1F [Example 64] | 3.26 | – | – | –
CON=C(C1=NOCCN1)c1ccccc1Oc1ncnc(F)c1F [IV-1, 3-{1-[2-(4,5-difluoropyrimid-6-yloxy)-phenyl]-1-(methoximino)-methyl}-5,6-dihydro-4H-1,2,4-oxadiazine] | 1.97 | – | – | –
CON=C1C(=NOCCOS(C)(=O)=O)Oc2ccccc21 [VI-1, benzofuran-2,3-dione 2-[O-(2-methylsulphonyloxy-ethyl)-oxime]3-(O-methyl-oxime)] | 2.39 | – | – | –
CON=C1C(=NOCCO)Oc2ccccc21 [benzofuran-2,3-dione 2-[O-(2-hydroxy-ethyl)-oxime] 3-(O-methyl-oxime)] | 1.65 | – | – | logP [1]: 1.79
